Data: patent publication US7598382B2, “Aryl substituted imidazoquinolines” (Coley Pharmaceutical Group, Inc., priority 2002, dated 2009)

| Structure (SMILES) | melting point [°C] |
| --- | --- |
| CCc1nc2c(N)nc3cc(-c4ccncc4)ccc3c2n1CC(C)(C)O [Example 143, 1-[4-Amino-2-ethyl-7-(pyridin-4-yl)-1H-imidazo[4,5-c]quinolin-1-yl]-2-methylpropan-2-ol] | > 250 |
| COCCc1nc2c(N)nc3cc(-c4cccnc4)ccc3c2n1CC(C)C [Example 145, 2-(2-Methoxyethyl)-1-(2-methylpropyl)-7-(pyridin-3-yl)-1H-imidazo[4,5-c]quinolin-4-amine] | 207 to 208 |
| COCCc1nc2c(N)nc3cc(-c4cncc(CO)c4)ccc3c2n1CC(C)C [Example 146, {5-[4-Amino-2-(2-methoxyethyl)-1-(2-methylpropyl)-1H-imidazo[4,5-c]quinolin-7-yl]pyridin-3-yl}methanol] | 202 to 204 |
| CCOCc1nc2c(N)nc3ccc(-c4cccnc4)cc3c2n1CC(C)(C)O [Example 148, 1-[4-Amino-2-ethoxymethyl-8-(pyridin-3-yl)-1H-imidazo[4,5-c]quinolin-1-yl]-2-methylpropan-2-ol] | 222 to 223 |
| CCOCc1nc2c(N)nc3ccc(CCc4ccccc4)cc3c2n1CC(C)(C)O [Example 151, 1-(4-Amino-2-ethoxymethyl-8-phenethyl-1H-imidazo[4,5-c]quinolin-1-yl)-2-methylpropan-2-ol] | 175 to 176 |
| CCOCc1nc2c(N)nc3cc(-c4cccnc4)ccc3c2n1CCCCN1CCCS1(=O)=O [Example 153, 1-[4-(1,1-Dioxidoisothiazolidin-2-yl)-butyl]-2-ethoxymethyl-7-(pyridin-3-yl)-1H-imidazo[4,5-c]quinolin-4-amine] | 171 to 173 |
| CCOCc1nc2c(N)nc3cc(-c4ccncc4)ccc3c2n1CCCCN1CCCS1(=O)=O [Example 154, 1-[4-(1,1-Dioxidoisothiazolidin-2-yl)-butyl]-2-ethoxymethyl-7-(pyridin-4-yl)-1H-imidazo[4,5-c]quinolin-4-amine] | 186 to 187.5 |
| CCOCc1nc2c(N)nc3cc(-c4cncc(CO)c4)ccc3c2n1CCCCN1CCCS1(=O)=O [Example 155, (5-{4-Amino-1-[4-(1,1-dioxidoisothiazolidin-2-yl)butyl]-2-ethoxymethyl-1H-imidazo[4,5-c]quinolin-7-yl}pyridin-3-yl)methanol] | 184.5 to 186 |
| CCOCc1nc2c(N)nc3cc(-c4cccc(CO)c4)ccc3c2n1CCCCN1CCCS1(=O)=O [Example 156, (5-{4-Amino-1-[4-(1,1-dioxidoisothiazolidin-2-yl)butyl]-2-ethoxymethyl-1H-imidazo[4,5-c]quinolin-7-yl}phenyl)methanol] | 158 to 161 |
| CCOCc1nc2c(N)nc3cc(-c4cccnc4)ccc3c2n1CCCCNC(=O)OC(C)(C)C [Example 157, tert-Butyl {4-[4-amino-2-ethoxymethyl-7-(pyridin-3-yl)-1H-imidazo[4,5-c]quinolin-1-yl]butyl}carbamate] | 117 to 119 |
| CCCc1nc2c(N)nc3cc(-c4cccnc4)ccc3c2n1CCCCNC(=O)OC(C)(C)C [Example 158, tert-Butyl {4-[4-amino-2-propyl-7-(pyridin-3-yl)-1H-imidazo[4,5-c]quinolin-1-yl]butyl}carbamate] | 136 to 138 |
| CCOCc1nc2c(N)nc3cc(-c4ccc(CO)cc4)ccc3c2n1CC1COC(C)(C)O1 (centres unmarked) [Example 160, 1-[(2,2-Dimethyl-1,3-dioxolan-4-yl)methyl]-2-ethoxymethyl-7-(4-hydroxymethylphenyl)-1H-imidazo[4,5-c]quinolin-4-amine] | 219 to 220 |
| CCOCc1nc2c(N)nc3cc(-c4ccccc4)ccc3c2n1CC1COC(C)(C)O1 (centres unmarked) [Example 161, 1-[(2,2-Dimethyl-1,3-dioxolan-4-yl)methyl]-2-ethoxymethyl-7-phenyl-1H-imidazo[4,5-c]quinolin-4-amine] | 168 to 170 |
| CCOCc1nc2c(N)nc3cc(-c4cccnc4)ccc3c2n1CCCOC [Example 164, 2-Ethoxymethyl-1-(3-methoxypropyl)-7-(pyridin-3-yl)-1H-imidazo[4,5-c]quinolin-4-amine] | 151 to 152 |
| CCOCc1nc2c(N)nc3cc(-c4ccncc4)ccc3c2n1CCCOC [Example 165, 2-Ethoxymethyl-1-(3-methoxypropyl)-7-(pyridin-4-yl)-1H-imidazo[4,5-c]quinolin-4-amine] | 225 to 226 |
| CCOCc1nc2c(N)nc3cc(-c4ccc(CO)cc4)ccc3c2n1CCCOC [Example 166, 2-Ethoxymethyl-1-(3-methoxypropyl)-7-(4-hydroxymethylphenyl)-1H-imidazo[4,5-c]quinolin-4-amine] | 228 to 229 |
| CCOCc1nc2c(N)nc3cc(-c4cncc(CO)c4)ccc3c2n1CCCOC [Example 167, 2-Ethoxymethyl-1-(3-methoxypropyl)-7-(5-hydroxymethylpyridin-3-yl)-1H-imidazo[4,5-c]quinolin-4-amine] | 198 to 199 |
| CCOCc1nc2c(N)nc3cc(-c4ccco4)ccc3c2n1CCCOC [Example 168, 2-Ethoxymethyl-7-(furan-2-yl)-1-(3-methoxypropyl)-1H-imidazo[4,5-c]quinolin-4-amine] | 144 to 145 |
| CCOCc1nc2c(N)nc3cc(-c4ccc(Cl)cc4)ccc3c2n1CCCOC [Example 169, 7-(4-Chlorophenyl)-2-ethoxymethyl-1-(3-methoxypropyl)-1H-imidazo[4,5-c]quinolin-4-amine] | 188 to 190 |
| CCOCc1nc2c(N)nc3cc(-c4ccc(C(=O)N5CCOCC5)cc4)ccc3c2n1CCCOC [Example 170, {4-[4-Amino-2-ethoxymethyl-1-(3-methoxypropyl)-1H-imidazo[4,5-c]quinolin-7-yl]phenyl}morpholin-4-ylmethanone] | 163 to 165 |
| CCOCc1nc2c(N)nc3cc(-c4cccnc4)ccc3c2n1CC1CCN(C(=O)OC(C)(C)C)CC1 [Example 176, tert-Butyl 4-{[4-amino-2-ethoxymethyl-7-(pyridin-3-yl)-1H-imidazo[4,5-c]quinolin-1-yl]methyl}piperidine-1-carboxylate] | 197 to 198 |
| CCOCc1nc2c(N)nc3cc(-c4cccnc4)ccc3c2n1CC1CCN(C(=O)C2CCCO2)CC1 (centres unmarked) [Example 182, 2-Ethoxymethyl-7-(pyridin-3-yl)-1-{[1-(tetrahydrofuran-2-ylcarbonyl)piperidin-4-yl]methyl}-1H-imidazo[4,5-c]quinolin-4-amine] | 191 to 192 |
| COCCc1nc2c(N)nc3cc(-c4cccnc4)ccc3c2n1CCCN1CCCC1=O [Example 183, 1-{3-[4-Amino-2-(2-methoxyethyl)-7-(pyridin-3-yl)-1H-imidazo[4,5-c]quinolin-1-yl]propyl}pyrrolidin-2-one] | 218 to 221 |
| COCCc1nc2c(N)nc3cc(-c4ccncc4)ccc3c2n1CCCN1CCCC1=O [Example 184, 1-{3-[4-Amino-2-(2-methoxyethyl)-7-(pyridin-4-yl)-1H-imidazo[4,5-c]quinolin-1-yl]propyl}pyrrolidin-2-one] | 232 to 235 |

Now from value to compound:

| melting point [°C] | Structure (SMILES) |
| --- | --- |
| 217 to 218 | CCOCc1nc2c(N)nc3ccc(C=Cc4ccccc4)cc3c2n1CC(C)(C)O [Example 147, 1-(4-Amino-2-ethoxymethyl-8-styryl-1H-imidazo[4,5-c]quinolin-1-yl)-2-methylpropan-2-ol] |
| 230 to 232 | CCOCc1nc2c(N)nc3ccc(-c4cncc(CO)c4)cc3c2n1CC(C)(C)O [Example 150, 1-[4-Amino-2-ethoxymethyl-8-(5-hydroxymethylpyridin-3-yl)-1H-imidazo[4,5-c]quinolin-1-yl]-2-methylpropan-2-ol] |
| 167 to 168.5 | CCOCc1nc2c(N)nc3cc(-c4ccccc4)ccc3c2n1CCCCN1CCCS1(=O)=O [Example 152, 1-[4-(1,1-Dioxidoisothiazolidin-2-yl)butyl]-2-ethoxymethyl-7-phenyl-1H-imidazo[4,5-c]quinolin-4-amine] |
| 181 to 182 | CCOCc1nc2c(N)nc3cc(-c4cccnc4)ccc3c2n1CC1COC(C)(C)O1 (centres unmarked) [Example 159, 1-[(2,2-Dimethyl-1,3-dioxolan-4-yl)methyl]-2-ethoxymethyl-7-(pyridin-3-yl)-1H-imidazo[4,5-c]quinolin-4-amine] |
| 218 to 220 | CCOCc1nc2c(N)nc3cc(-c4cccnc4)ccc3c2n1CC(O)CO (centres unmarked) [Example 162, 3-[4-Amino-2-ethoxymethyl-7-(pyridin-3-yl)-1H-imidazo[4,5-c]quinolin-1-yl]propane-1,2-diol] |
| 146 to 147 | CCOCc1nc2c(N)nc3cc(-c4ccccc4)ccc3c2n1CCCOC [Example 163, 2-Ethoxymethyl-1-(3-methoxypropyl)-7-phenyl-1H-imidazo[4,5-c]quinolin-4-amine] |
| 209 to 210 | CCOCc1nc2c(N)nc3cc(-c4cccc(C(=O)NCC(C)C)c4)ccc3c2n1CCCOC [Example 171, 3-[4-Amino-2-ethoxymethyl-1-(3-methoxypropyl)-1H-imidazo[4,5-c]quinolin-7-yl]-N-(2-methylpropyl)benzamide] |
| 156 to 158 | CCOCc1nc2c(N)nc3cc(-c4ccc(S(=O)(=O)CC)cc4)ccc3c2n1CCCOC [Example 172, 7-[(4-Ethanesulfonyl)phenyl]-2-ethoxymethyl-1-(3-methoxypropyl)-1H-imidazo[4,5-c]quinolin-4-amine] |
| 175 to 177 | CCOCc1nc2c(N)nc3cc(-c4ccc(OC(C)C)cc4)ccc3c2n1CCCOC [Example 173, 2-Ethoxymethyl-7-[4-(2-propoxy)phenyl]-1-(3-methoxypropyl)-1H-imidazo[4,5-c]quinolin-4-amine] |
| 174 to 176 | CCOCc1nc2c(N)nc3cc(-c4cccc(C(=O)N5CCOCC5)c4)ccc3c2n1CCCOC [Example 174, {3-[4-Amino-2-ethoxymethyl-1-(3-methoxypropyl)-1H-imidazo[4,5-c]quinolin-7-yl]phenyl}morpholin-4-ylmethanone] |
| 210 to 213 | COCCc1nc2c(N)nc3cc(-c4cccc(NS(C)(=O)=O)c4)ccc3c2n1CCCN1CCCC1=O [Example 186, N-(3-{4-Amino-2-(2-methoxyethyl)-1-[3-(2-oxopyrrolidin-1-yl)propyl]-1H-imidazo[4,5-c]quinolin-7-yl}phenyl)methanesulfonamide] |
